From US4294838A, “Certain heterocyclic sulfoximide derivatives” (priority 1977, dated 1981)
Values after ≈ are worked out from the molar mass of the structure shown. Like-named read-outs stand apart in the source and are kept apart here.

What was measured:
[1] = Acute toxicity in mice (LD50, Litchfield and Wilcoxon); details: mouse, in vivo, male NRMI mice
Description: The acute toxicity has been determined in male mice (NRMI strain) weighing 17 to 21 g. The animals were fasted 24 hours prior to the trial. Water was offered ad libidum. The substances were administered subcutaneously and by using a gastric tube in increasing doses to groups consisting of 6 animals. The animals were observed over a period of 24 hours. The LD50 values were determined according to the method of Litchfield and Wilcoxon (Therap. Grundlagen der experimentellen Arzneimittelforschung--Ther. Fundamentals of Experimental Durg Research--1965--page 82). The findings were compiled as average values in the following tables: […]

[2] = system: acetylcholine-spasm (bronchospasm); experiment: Bronchospasmolytic activity (Konzett and Roessler), acetylcholine-spasm; type: in vivo, guinea pigs; details: Cavia porcellus, iv, 2 min; guinea pig, i.v., 2 min before acetylcholine; read-out: ED100 Acetyl-choline (bronchospasmolytic)
Description: (§1) The method described by Konzett and Roessler was employed (Arch.exp.Path.Pharmak. 195, 72 (1940).
(§2) Experimental animals were guinea pigs weighing between 280 and 380 g. The animals were kept under urethane narcosis (1.5 g/kg i.m.) and their chests opened. The animals received artificial respiration by means of a respiratory pump. The respiratory pressure was adjusted by a mercury manometer. Every 4 minutes a bronchospasm was caused by intravenous application (vena jugularis) of spasmodics. These were acetylcholine and histamine. Two minutes prior to the injection of a spasmodic, the substances under investigation were administered, i.e. again by intravenous injection. […] With respect to the histamine-spasm they were active in the range of […].

[3] = system: ileum preparations, acetylcholine spasm; experiment: Spasmolytic activity on isolated ileum (Magnus), acetylcholine spasm; parameters: species or system Guinea pigs; details: Cavia porcellus, guinea pig ileum, 37° C, acetylcholine 4×10^-7 g/ml; for IC50: read-out: ED50 Acetylcholine (spasmolytic)
Description: (§3) The method described by Magnus was employed [Therap. Grundlagen der Experimentellen Arzneimittelforschung, Wiss. Verlagsgesellschaft, Stuttgart (1965) page 241].
(§4) Guinea pigs of both sexes weighing between 200 and 500 g were killed by cervical blow. After that they were allowed to bleed and then laparotomized. About 15 cm of the distal ileum were then placed into a Krebs-Henseleit-solution at 37° C.
(§5) Ileum preparations of about 1 cm length were fixed in a special vessel containing 25 ml of the Krebs-Henseleit-solution which were percolated by a gas mixture (Carbogen) consisting of 95% oxygen and 5% carbon dioxide. The temperature of the bath was maintained at 37° C. The movements of the ileum preparations were observed by a lampblack-kymograph.
(§6) Every 10 minutes single spasms were caused with solutions of acetylcholine (4×10^-7 g/ml) barium chloride (4×10^-4 g/ml) and histamine (8×10^-6 g/ml) in the Krebs-Henseleit-solution. Five minutes after application the spasms were stopped by rinsing the ileum segments with a Krebs-Henseleit-solution which was free of spasmodics. The tested compounds were added to ther Krebs-Henseleit-solution 2 minutes after causing the spasms.

[4] = system: ileum preparations, histamine spasm; experiment: Spasmolytic activity on isolated ileum (Magnus), histamine spasm; parameters: species or system Guinea pigs; details: Cavia porcellus, guinea pig ileum, 37° C, histamine 8×10^-6 g/ml; for IC50: read-out: ED50 Histamine (spasmolytic)
Description: as §3, §4, §5, §6

[5] = system: ileum preparations, barium chloride spasm; experiment: Spasmolytic activity on isolated ileum (Magnus), barium chloride spasm; parameters: species or system Guinea pigs; details: Cavia porcellus, guinea pig ileum, 37° C, barium chloride 4×10^-4 g/ml; for IC50: read-out: ED50 Barium-Chloride (spasmolytic)
Description: as §3, §4, §5, §6

[6] = system: histamine-spasm (bronchospasm); experiment: Bronchospasmolytic activity (Konzett and Roessler), histamine-spasm; type: in vivo, guinea pigs; details: Cavia porcellus, iv, 2 min; guinea pig, i.v., 2 min before histamine
Description: as §1, §2

[7] = po, w.i.g. (gastric tube), read-out: Acute Toxicity LD50, w.i.g.
[8] = sc, subcutaneous, read-out: Acute Toxicity LD50, S.C.

Row | Structure (SMILES) | LD50 at 24 h [1, 7] [mg/kg] | LD50 at 24 h [1, 8] [mg/kg] | ED100 [2] [mg/kg] | IC50 [3] [µg/mL] | IC50 [4] [µg/mL] | IC50 [5] [µg/mL] | ED100 [6] [mg/kg] | IC100 ([3]; (ED100)) [µg/mL] | IC100 ([4]; (ED100)) [µg/mL] | IC100 ([5]; (ED100)) [µg/mL]
1 | CCN(CC)CCN=S(=O)(c1ccccc1)c1cccs1 (stereo not drawn) [Example 1, N-(2-Diethylaminoethyl)-S-phenyl-S-(2-thienyl)-sulphoximide] | 200 | 150 | 1 | 1 (≈ 3.1 µM) | 5 (≈ 15.5 µM) | 80 (≈ 248 µM) | > 4 |  |  | 
2 | C[N+](C)(C)CCCN=S(=O)(c1ccccc1)c1cccs1 (stereo not drawn) [Example 2, N-(3-trimethylammoniumpropyl)-S-phenyl-S-(2-thienyl)-sulphoximide iodide] | > 400 | 300 |  | 5 |  |  |  |  |  | 
3 | CN(C)CCCN=S(=O)(c1ccccc1)c1cccs1 (centres unmarked) [Example 2] | < 800 | 600 |  | > 1 | 50 (≈ 162 µM) | > 10 |  |  |  | 
4 | O=S(=NCCN1CCCC1)(c1ccccc1)c1cccs1 (stereo not drawn) [Example 3, N-(2-Pyrrolidinoethyl)-S-phenyl-S-(2-thienyl)-sulphoximide] | 150 |  |  | > 1 | 5 (≈ 15.6 µM) |  |  |  |  | 
5 | CCN(CC)CCN=S(=O)(c1ccccc1)c1ccsc1 (stereo not drawn) [Example 4, N-(2-Diethylaminoethyl)-S-phenyl-S-(3-thienyl)-sulphoximide] | 200 | 150 | > 2 | 1 (≈ 3.1 µM) | 10 (≈ 31 µM) | 40 (≈ 124 µM) | > 8 |  |  | 
6 | CCN(CC)CCN=S(=O)(c1cccs1)c1cccs1 [Example 5, N-(2-Diethylaminoethyl)-S,S-bis-(2-thienyl)-sulphoximide] | 250 | 100 | 2 | 1 (≈ 3.04 µM) | 10 (≈ 30.4 µM) | 40 (≈ 122 µM) | > 8 |  |  | 
7 | O=S(=NCCN1CCCCC1)(c1cccs1)c1cccs1 [Example 6, N-(2-Piperidinoethyl)-S,S-bis-(2-thienyl)-sulphoximide] | 200 |  |  | 5 (≈ 14.7 µM) | 10 (≈ 29.4 µM) | 80 (≈ 235 µM) |  |  |  | 
8 | O=S(=NCCN1CCOCC1)(c1cccs1)c1cccs1 [Example 7, N-(2-Morpholinoethyl)-S,S-bis-(2-thienyl)-sulphoximide] | 1000 |  |  | 4 (≈ 11.7 µM) | 40 (≈ 117 µM) |  |  |  |  | 
9 | CCN(CC)CCN=S(=O)(c1ccsc1)c1cccs1 (stereo not drawn) [Example 8, N-(2-Diethylaminoethyl)-S-(2-thienyl)-S-(3-thienyl)-sulphoximide] | < 300 | 250 | 2 | 0.5 (≈ 1.52 µM) | 2 (≈ 6.09 µM) | 80 (≈ 244 µM) | 4 |  |  | 
10 | CCN(CC)CCN=S(=O)(c1ccsc1)c1ccsc1 [Example 9, N-(2-Diethylaminoethyl)-S,S-bis-(3-thienyl)-sulphoximide] | > 30 | 30 | 4 | 0.25 (≈ 0.761 µM) | 10 (≈ 30.4 µM) |  | > 8 |  |  | 
11 | CCN(CC)CCN=S(=O)(c1ccccc1)c1ccco1 (stereo not drawn) [Example 10, N-(2-Diethylaminoethyl)-S-(2-furyl)-S-phenyl-sulphoximide] | 400 | 150 |  |  |  |  |  |  |  | 
12 | CCN(CC)CCN=S(=O)(c1ccccc1)c1cccnc1 (stereo not drawn) [Example 12, N-(2-Diethylaminoethyl)-S-phenyl-S-(3-pyridyl)-sulphoximide] | 1600 |  |  |  |  |  |  |  |  | 
13 | CCN(CC)CCN=S(=O)(c1ccccc1)c1ccccc1 [Sulfoxifen-Phosphate, N(2-Diethylaminoethyl)-diphenyl-sulfoximin, reference compound] | 180 | 175 | 4 | 0.1 (≈ 0.316 µM) | 1 (≈ 3.16 µM) | 40 (≈ 126 µM) | 4 | 1 | 10 | 80
